Laboratory results published in patent publication US20220079139A1, “CYCLOSPORIN ANALOG AND USE THEREOF” (Farsight Medical Technology (Shanghai) Co., Ltd., priority 2019, published 2022).

How the values were obtained:
Cyclophilin A = Cyclophilin A (Homo sapiens, UniProt P62937); experiment: Cyclophilin inhibition binding, competitive ELISA (Cyclophilin A); conditions: human recombinant cyclophilin, read-out: CypA EC50
Experimental: (§1) The cyclophilin inhibition binding activity of compounds disclosed herein was determined using a competitive ELISA adapted from the methods described by Quesniaux et al. (Eur. J Immunol., 1987, 17:1359-1365). Activated ester of succinyl spacers bound to D-Lys^8-cylosporine A (D-Lys^8-Cs) are coupled to bovine serum albumin (BSA) through D-lysyl residue in position 8. BSA is dissolved in 0.1 M borate buffer, pH 9.0 (4 mg in 1.4 ml). A hundredfold molar excess of D-Lys^8-Cs dissolved in dimethyl formamide (0.6 ml) is added dropwise to the BSA under vigorous stirring. The coupling reaction is performed for 2 to 3 hours at room temperature under mild stirring and the conjugate obtained is extensively dialyzed against phosphate-buffered saline (PBS, pH 7.4).
(§2) Microtiter Plates are coated with D-Lys^8-Cs-BSA conjugate (2 μg/ml in PBS for 24 hours at 4° C.). Titration Plates are washed with Tween®/PBS and with PBS alone. To block nonspecific binding, 2% BSA/PBS (pH 7.4) is added to the wells and allowed to incubate for 2 hours at 37° C. A five-fold dilution series of the compound to be tested is made in ethanol in a separate microtiter plate. The starting concentration is 0.1 mg/mL for assays with human recombinant cyclophilin. 198 μL of 0.1 μg/mL cyclophilin solution is added to the microtiter plate immediately followed by 2 μL of diluted cyclosporine A (used as a reference compound) or the compound of the invention. The reaction between coated BSA-Cs conjugate, free cyclosporine A and cyclophilin is allowed to equilibrate overnight at 4° C. Cyclophilin is detected with anti-cyclophilin rabbit serum diluted in PBS containing 1% BSA and incubates overnight at 4° C. Titration Plates are washed as described above. Bound rabbit antibodies are then detected by goat anti-rabbit IgG conjugated to alkaline phosphatase and diluted in 1% BSA-PBS and allowed to incubate for 2 hours at 37° C. Titration Plates are washed as described above. […] The results are expressed as an EC50, which is the concentration of the compound of the invention required to achieve 50% inhibition.

Cyclophilin D = Cyclophilin D (Homo sapiens, UniProt P30405); experiment: Cyclophilin inhibition binding, competitive ELISA (Cyclophilin D); conditions: human recombinant cyclophilin, read-out: CypD EC50
Cyclophilin D, sequence (P30405 30-207): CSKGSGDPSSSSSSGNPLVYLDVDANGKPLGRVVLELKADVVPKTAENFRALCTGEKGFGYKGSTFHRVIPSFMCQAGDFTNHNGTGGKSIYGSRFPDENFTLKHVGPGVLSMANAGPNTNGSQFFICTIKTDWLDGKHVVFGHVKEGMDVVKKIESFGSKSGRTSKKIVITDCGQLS
Experimental: as §1, §2

Cyclophilin A, sequence (P62937 whole entry): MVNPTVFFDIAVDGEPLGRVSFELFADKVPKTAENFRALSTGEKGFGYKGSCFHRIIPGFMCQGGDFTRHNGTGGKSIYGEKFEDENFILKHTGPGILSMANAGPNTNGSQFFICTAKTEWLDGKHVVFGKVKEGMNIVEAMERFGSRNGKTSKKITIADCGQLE

Structure (SMILES) | EC50 (Cyclophilin A) | EC50 (Cyclophilin D)
C/C=C/C[C@@H](C)[C@@H](O)[C@H]1C(=O)N[C@@H](CC)C(=O)N(C)[C@H](OCCN2CCCC2)C(=O)N(C)[C@@H](CC(C)C)C(=O)N[C@@H](C(C)C)C(=O)N(C)[C@@H](CC(C)C)C(=O)N[C@@H](C)C(=O)N[C@H](C)C(=O)N(C)[C@@H](CC(C)C)C(=O)N(C)[C@@H](CC(C)C)C(=O)N(C)[C@@H](C(C)C)C(=O)N1C [Entry 7] | 12 nM | 1200 nM
C/C=C/C[C@@H](C)[C@@H](O)[C@H]1C(=O)N[C@@H](CC)C(=O)N(C)[C@H](OCCN2CCCCC2)C(=O)N(C)[C@@H](CC(C)C)C(=O)N[C@@H](C(C)C)C(=O)N(C)[C@@H](CC(C)C)C(=O)N[C@@H](C)C(=O)N[C@H](C)C(=O)N(C)[C@@H](CC(C)C)C(=O)N(C)[C@@H](CC(C)C)C(=O)N(C)[C@@H](C(C)C)C(=O)N1C [Entry 6] | 118 nM | 2500 nM

Second part, the compound after the results:

EC50 (Cyclophilin A) | EC50 (Cyclophilin D) | Structure (SMILES)
202 nM | 3550 nM | C/C=C/C[C@@H](C)[C@@H](O)[C@H]1C(=O)N[C@@H](CC)C(=O)N(C)[C@H](OCCN(C)C(C)C)C(=O)N(C)[C@@H](CC(C)C)C(=O)N[C@@H](C(C)C)C(=O)N(C)[C@@H](CC(C)C)C(=O)N[C@@H](C)C(=O)N[C@H](C)C(=O)N(C)[C@@H](CC(C)C)C(=O)N(C)[C@@H](CC(C)C)C(=O)N(C)[C@@H](C(C)C)C(=O)N1C [Entry 2]
66 nM | – | C/C=C/C[C@@H](C)[C@@H](O)[C@H]1C(=O)N[C@@H](CC)C(=O)N(C)[C@H](OCCN2CCC2)C(=O)N(C)[C@@H](CC(C)C)C(=O)N[C@@H](C(C)C)C(=O)N(C)[C@@H](CC(C)C)C(=O)N[C@@H](C)C(=O)N[C@H](C)C(=O)N(C)[C@@H](CC(C)C)C(=O)N(C)[C@@H](CC(C)C)C(=O)N(C)[C@@H](C(C)C)C(=O)N1C [Entry 5]
14 nM | – | C/C=C/C[C@@H](C)[C@@H](O)[C@H]1C(=O)N[C@@H](CC)C(=O)N(C)[C@H](OCCCN)C(=O)N(C)[C@@H](CC(C)C)C(=O)N[C@@H](C(C)C)C(=O)N(C)[C@@H](CC(C)C)C(=O)N[C@@H](C)C(=O)N[C@H](C)C(=O)N(C)[C@@H](CC(C)C)C(=O)N(C)[C@@H](CC(C)C)C(=O)N(C)[C@@H](C(C)C)C(=O)N1C [Entry 3]
